These results are taken from patent publication US20240325572A1, “N-HETEROCYCLYL SUBSTITUTED 2-CYANO-3-(NAPHTHALEN-2-YL)ACRYLAMIDE DERIVATIVES AS FLUOROPHORS FOR DETECTION OF AMYLOID AND AMYLOID-LIKE PROTEINS FOR DIAGNOSIS OF NEURODEGENERATIVE DISORDERS” (Amydis, Inc., priority 2021, published 2024).

The target in this assay is T1, aggregated amyloid beta (Aβ1-42) (Homo sapiens, UniProt P05067).
T1 construct: Aβ1-42 peptide was aggregated in vitro using the following procedure
Briefly: In vitro binding studies of compounds with amyloid beta: fluorescent emission spectra with and without aggregated Aβ. As to conditions: fold increase at maximum emission (compound+Aβ/compound), 4 μM compound, 5 μM aggregated Aβ in 1×PBS; for Fold Increase @ 450 nm: excitation 450 nm; for Fold Increase @ 488 nm: excitation 488 nm. The protocol:
The fluorescent properties and emission spectra of compounds described herein with aggregated amyloid beta (Aβ1-42) were characterized as described below.
Emission spectra for compounds described herein were collected after incubation of the compounds with and without aggregated Aβ at specific excitation wavelengths (450 nm and 488 nm) employed in standard ocular imaging equipment.
Aβ1-42 peptide was aggregated in vitro using the following procedure. Aβ42 (HFIP) was removed from the freezer and allowed to warm to room temperature, then 1 mg of Aβ42 was dissolved in 215 μL of ddH2O for about 10-20 mins at room temperature. To the resulting solution, 2 mL of ddH2O was added to provide a 100 μM stock solution. A 100 μL aliquot was sampled and frozen (non-aggregated sample). The tubes were placed in a thermoshaker at 350 rpm for 3 days. Care was taken to avoid generating bubbles. Aβ aggregation was confirmed by measuring binding to Thioflavin T (ThT). Aggregated Aβ1-42 peptide was then portioned into 150 μL aliquots and stored at −80° C.
The fluorescent emission spectra were measured as follows to determine binding of Aβ to test compounds described herein. The Shimadzu fluorimeter was turned on and allowed to warm up for ˜60 minutes. The test compounds were then removed from the −20° C. freezer and were allowed to warm to room temperature. The 100 μM aggregated Aβ solution was then removed from the −80° C. freezer and also allowed to warm to room temperature. 250 μM solutions of each test compound in DMSO were then prepared. These were then used to prepare 4 μM solutions of each test compound, with and without 5 μM aggregated Aβ in 1×PBS, in triplicates. Using a cuvette, the fluorescent emission spectra were measured for each test compound+Aβ solution, employing a DMSO/PBS solution as a blank. Each sample was tested at an excitation of 450 nm and 488 nm. Fluorescent emission spectra were then collected for each 4 μM test compound solution alone. The resulting data were used to plot intensity vs. wavelength for each emission scan.

T1 sequence (P05067 672-713 limits assumed): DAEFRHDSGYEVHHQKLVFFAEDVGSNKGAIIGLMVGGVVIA

Turning to `N#C/C(=C\c1ccc2cc(N3CCCCC3)ccc2c1)C(=O)NCC(O)CO` (centres unmarked) [Compound 4, (E)-2-cyano-N-(2,3-dihydroxypropyl)-3-(6-(piperidin-1-yl)naphthalen-2-yl)acrylamide, reference compound], the “Fold Increase @ 450 nm” value worked out at 15.28 and the “Fold Increase @ 488 nm” value was found to be 18.53.

In the case of `N#C/C(=C\c1ccc2cc(N3CCCC3)ccc2c1)C(=O)NCC(O)CO` (centres unmarked) [Compound 5, (E)-2-cyano-N-(2,3-dihydroxypropyl)-3-(6-(pyrrolidin-1-yl)naphthalen-2-yl)acrylamide], the “Fold Increase @ 450 nm” value was 18.18 and the “Fold Increase @ 488 nm” value was 22.81.

Consider `N#C/C(=C\c1ccc2ccccc2c1N1CCCCC1)C(=O)NCC(O)CO` (centres unmarked) [Compound 6, (E)-2-cyano-N-(2,3-dihydroxypropyl)-3-(1-(piperidin-1-yl)naphthalen-2-yl)acrylamide], for which the “Fold Increase @ 450 nm” value came to 7.12 and the “Fold Increase @ 488 nm” value is given as 17.18.

Take `N#C/C(=C\c1ccc2ccccc2c1N1CCC1)C(=O)NCC(O)CO` (centres unmarked) [Compound 7, (E)-3-(1-(azetidin-1-yl)naphthalen-2-yl)-2-cyano-N-(2,3-dihydroxypropyl)acrylamide]: the “Fold Increase @ 450 nm” value is listed as 4.31 and the “Fold Increase @ 488 nm” value turned out to be 2.84.

Turning to `N#C/C(=C\c1ccc2cc(N3CCCCC3)ccc2c1)C(=O)CC[C@H](O)CO` [Compound 8, (S,E)-6,7-dihydroxy-3-oxo-2-((6-(piperidin-1-yl)naphthalen-2-yl)methylene)heptanenitrile], the “Fold Increase @ 450 nm” value was 9.48 and the “Fold Increase @ 488 nm” value is 19.60.

`N#C/C(=C\c1ccc2cc(N3CCCCC3)ccc2c1)C(=O)CCCOCCOCCO` [Compound 9, (E)-6-(2-(2-hydroxyethoxy)ethoxy)-3-oxo-2-((6-(piperidin-1-yl)naphthalen-2-yl)methylene)hexanenitrile]: the “Fold Increase @ 450 nm” value is on record as 10.16 and the “Fold Increase @ 488 nm” value is on record as 9.11.

In the case of `N#C/C(=C\c1ccc2cc(N3CCC3)ccc2c1)C(=O)NCC(O)CO` (centres unmarked) [Compound 10, (E)-3-(6-(azetidin-1-yl)naphthalen-2-yl)-2-cyano-N-(2,3-dihydroxypropyl)acrylamide], the “Fold Increase @ 450 nm” value is recorded as 21.98 and the “Fold Increase @ 488 nm” value is recorded as 19.13.
